# Experimental data from patent US7037673B2, “Dipeptide production method, L-amino acid amide hydrolase used therein, and production method of L-amino acid amide hydrolase” (Ajinomoto Co., Inc., priority 2001, dated 2006).
# Residues, ends and D or L forms follow the SMILES beside them.
# Tested on: not given
# Experiment: not given
# Settings: compared with L-glutamine; cited from earlier work
SMILES,stability,water-solubility
C[C@H](N)C(=O)N[C@@H](CCC(N)=O)C(=O)O [L-alanyl-L-glutamine] (H-Ala-Gln-OH),higher,higher

# Tested on: L-alanine amide hydrolase
# Experiment: Measurement of activity of L-alanine amide hydrolase (L-alanyl-L-glutamine formation, HPLC)
# Assay type: biochemical, Corynebacterium glutamicum strain ATCC 13286
# Settings: His-Tag purified enzyme
# Protocol: Measurement of L-alanine amide enzyme activity was carried out by incubating a reaction mixture containing 50 mM L-alanine amide, 150 mM L-glutamine, 100 mM Tris-HCl buffer (pH 9.0), 10 mM EDTA and enzyme solution at 30° C. for 60 minutes followed by stopping the reaction by adding aqueous phosphoric acid (pH 1.5) equal to four volumes of the reaction mixture. The amount of L-alanyl-L-glutamine was determined by HPLC. For the unit of enzyme activity, enzyme activity that produces 1 μmol of L-alanyl-L-glutamine in 1 minute under these conditions was defined as 1 unit (U).
# The conditions of HPLC used for analysis were as indicated below.
# Mobile phase: (aqueous phosphoric acid solution (pH 2.1)), 2.5 mM sodium-1-octanesulfonate/methanol=10/1
# Column temperature: 40° C.
row,SMILES,production yield of Ala-Gln relative to L-alanine amide
1,C[C@H](N)C(=O)N[C@@H](CCC(N)=O)C(=O)O [L-alanyl-L-glutamine] (H-Ala-Gln-OH),7.2%

# Tested on: His-Tag L-alanine amide hydrolase
# Experiment: Study of substrate specificity using His-Tag purified enzyme
# Assay type: biochemical, Corynebacterium glutamicum strain ATCC 13286
# Settings: 100 mM L-alanine amide, 150 mM test amino acid, pH 9.0, enzyme 0.0045 U/ml, 25° C., 3 hours
row,SMILES,peptide synthesized from L-alanine amide and test amino acid
1,C[C@H](N)C(=O)N[C@@H](C)C(=O)O [L-alanyl-L-alanine] (H-Ala-Ala-OH),10.11 mM
2,C[C@H](N)C(=O)N[C@@H](CCCNC(=N)N)C(=O)O [L-alanyl-L-arginine] (H-Ala-Arg-OH),27.69 mM
3,C[C@H](N)C(=O)N[C@@H](CCC(=O)O)C(=O)O [L-alanyl-L-glutamate] (H-Ala-Glu-OH),1.20 mM
4,C[C@H](N)C(=O)N[C@@H](Cc1c[nH]cn1)C(=O)O [L-alanyl-L-histidine] (H-Ala-His-OH),12.52 mM
5,CC[C@H](C)[C@H](NC(=O)[C@H](C)N)C(=O)O [L-alanyl-L-isoleucine] (H-Ala-Ile-OH),14.11 mM
6,CC(C)C[C@H](NC(=O)[C@H](C)N)C(=O)O [L-alanyl-L-leucine] (H-Ala-Leu-OH),9.60 mM
7,C[C@H](N)C(=O)N[C@@H](CCCCN)C(=O)O [L-alanyl-L-lysine] (H-Ala-Lys-OH),18.83 mM
8,CSCC[C@H](NC(=O)[C@H](C)N)C(=O)O [L-alanyl-L-methionine] (H-Ala-Met-OH),14.49 mM
9,C[C@H](N)C(=O)N[C@@H](Cc1ccccc1)C(=O)O [L-alanyl-L-phenylalanine],13.42 mM
10,C[C@H](N)C(=O)N1CCC[C@H]1C(=O)O [L-alanyl-L-proline] (H-Ala-Pro-OH),0.81 mM
11,C[C@H](N)C(=O)N[C@@H](CO)C(=O)O [L-alanyl-L-serine] (H-Ala-Ser-OH),24.67 mM
12,C[C@H](N)C(=O)N[C@H](C(=O)O)[C@@H](C)O [L-alanyl-L-threonine] (H-Ala-Thr-OH),20.76 mM
13,C[C@H](N)C(=O)N[C@@H](Cc1c[nH]c2ccccc12)C(=O)O [L-alanyl-L-tryptophan] (H-Ala-Trp-OH),10.09 mM
14,C[C@H](N)C(=O)N[C@@H](Cc1ccc(O)cc1)C(=O)O [L-alanyl-L-tyrosine] (H-Ala-Tyr-OH),1.52 mM
15,CC(C)[C@H](NC(=O)[C@H](C)N)C(=O)O [L-alanyl-L-valine] (H-Ala-Val-OH),9.72 mM
16,C[C@H](N)C(=O)NCC(=O)O [L-alanyl-glycine] (H-Ala-Gly-OH),7.54 mM

# Same assay, conditions: 100 mM test amino acid amide, 150 mM L-glutamine, pH 9.0, enzyme 0.0045 U/ml, 25° C., 3 hours
row,peptide produced from test amino acid amide and L-glutamine,SMILES
1,17.7 mM,NCC(=O)N[C@@H](CCC(N)=O)C(=O)O [glycyl-L-glutamine] (H-Gly-Gln-OH)
2,21.2 mM,NC(=O)CC[C@H](NC(=O)[C@@H](N)CC(=O)O)C(=O)O [α-L-aspartyl-glutamine] (H-Asp-Gln-OH)

# Tested on: L-alanine amide hydrolase
# Experiment: Production of L-alanyl-L-asparagine and L-alanyl-L-glutamine with purified enzyme
# Assay type: biochemical, Corynebacterium glutamicum strain ATCC 13286
# Settings: 50 μmol L-alanine amide hydrochloride + 150 μmol L-asparagine or L-glutamine, 0.08 unit enzyme, 1 ml, pH 9.0, 30° C., 10 hours
# Description: Hereinafter, the present invention will be explained in more detail by way of examples. However, the present invention should not be considered to be limited to these examples.
# The L-alanine amide hydrolase uniformly purified in Example 2 was allowed to act on L-alanine amide hydrochloride and L-asparagine or L-alanine amide hydrochloride and L-glutamine to produce L-alanyl-L-asparagine or L-alanyl-L-glutamine. In the case of obtaining L-alanyl-L-asparagine, 200 μmol of Tris-HCl buffer (pH 9.0), 50 μmol or L-alanine amide hydrochloride, 150 μmol of L-asparagine and enzyme liquid containing 0.08 unit of L-alanine amide hydrolase were added and mixed to a final volume of 1 ml. In the case of obtaining L-alanyl-L-glutamine, the reactants were mixed under the same conditions as in the case of L-alanyl-L-asparagine with the exception of using 150 μmol of L-glutamine instead of 150 μmol of L-asparagine. Control experiments were established for the case of using one of the substrates or setting the lot in which enzyme was not added. The reaction was carried out at a reaction temperature of 30° C. for 10 hours, and the results of quantifying the target product are shown in Table 3.
row,SMILES,Product concentration
1,C[C@H](N)C(=O)N[C@@H](CC(N)=O)C(=O)O [L-alanyl-L-asparagine] (H-Ala-Asn-OH),8.4 mM
2,C[C@H](N)C(=O)N[C@@H](CCC(N)=O)C(=O)O [L-alanyl-L-glutamine] (H-Ala-Gln-OH),7.7 mM
